Experiments:
PI3K beta = target: T1, PI3K beta (Homo sapiens, UniProt P42338); assay: PI3K beta inhibition assay; assay type: biochemical; details: binned
T1 construct: purchased Upstate
Method: (§1) For TLC analysis, reactions are then terminated by the addition of 105 μl 1N HCl followed by 160 μl CHC13:MeOH (1:1). The biphasic mixture is vortexed, briefly centrifuged, and the organic phase is transferred to a new tube using a gel loading pipette tip precoated with CHCl3. […] The TLC plates are then dried, exposed to a phosphorimager screen (Storm, Amersham), and quantitated.
(§2) Anr exemplary system is PI 3-Kinase (human) HTRF™ Assay from Upstate. […] Briefly, the assay is a time resolved FRET assay that indirectly measures PIP3 product formed by the activity of a PI3-K. The kinase reaction is performed in a microtitre plate (e.g., a 384 well microtitre plate). The total reaction volume is approximately 20 ul per well. In the first step, each well receives 2 ul of test compound in 20% dimethylsulphoxide resulting in a 2% DMSO final concentration. Next, approximately 14.5 ul of a kinase/PIP2 mixture (diluted in 1× reaction buffer) is added per well for a final concentration of 0.25-0.3 ug/ml kinase and 10 uM PIP2. The plate is sealed and incubated for 15 minutes at room temperature. To start the reaction, 3.5 ul of ATP (diluted in 1× reaction buffer) is added per well for a final concentration of 10 uM ATP. The plate is sealed and incubated for 1 hour at room temperature. The reaction is stopped by adding 5 ul of Stop Solution per well and then 5 ul of Detection Mix is added per well. The plate is sealed, incubated for 1 hour at room temperature, and then read on an appropriate plate reader. Data is analyzed and IC50s are generated using GraphPad Prism 5.

mTORC = target: T2, mTORC (Homo sapiens, UniProt P42345); assay: mTOR inhibition assay (Table 4, mTORC); assay type: biochemical; details: binned
T2 construct: purchased Invitrogen
Method: The compounds described herein can be tested against recombinant mTOR (Invitrogen) in an assay containing 50 mM HEPES, pH 7.5, 1 mM EGTA, 10 mM MgCl2, 2.5 mM, 0.01% Tween, 10 μM ATP (2.5 μCi of […]), and 3 μg/mL BSA. Rat recombinant PHAS-1/4EBP1 (Calbiochem; 2 mg/mL) is used as a substrate. Reactions are terminated by spotting onto nitrocellulose, which is washed with 1M NaCl/1% phosphoric acid (approximately 6 times, 5-10 minutes each). Sheets are dried and the transferred radioactivity quantitated by phosphorimaging.
Other kits or systems for assaying mTOR activity are commercially avaiable. For instance, one can use Invitrogen's LanthaScreen™ Kinase assay to test the inhibitors of mTOR disclosed herein. This assay is a time resolved FRET platform that measures the phosphorylation of GFP labeled 4EBP1 by mTOR kinase. The kinase reaction is performed in a white 384 well microtitre plate. The total reaction volume is 20 ul per well and the reaction buffer composition is 50 mM HEPES pH7.5, 0.01% Polysorbate 20, 1 mM EGTA, 10 mM MnC12, and 2 mM DTT. In the first step, each well receives 2 ul of test compound in 20% dimethylsulphoxide resulting in a 2% DMSO final concentration. Next, 8 ul of mTOR diluted in reaction buffer is added per well for a 60 ng/ml final concentration. To start the reaction, 10 ul of an ATP/GFP-4EBP1 mixture (diluted in reaction buffer) is added per well for a final concentration of 10 uM ATP and 0.5 uM GFP-4EBP1. The plate is sealed and incubated for 1 hour at room temperature. The reaction is stopped by adding 10 ul per well of a Tb-anti-pT46 4EBP1 antibody/EDTA mixture (diluted in TR-FRET buffer) for a final concentration of 1.3 nM antibody and 6.7 mM EDTA. The plate is sealed, incubated for 1 hour at room temperature, and then read on a plate reader set up for LanthaScreen™ TR-FRET. Data is analyzed and IC50s are generated using GraphPad Prism 5.

PI3K alpha = target: T3, PI3K alpha (Homo sapiens, UniProt P42336); assay: PI3K alpha inhibition assay; assay type: biochemical; details: binned
T3 construct: purchased Upstate
Method: as §1, §2

PI3K delta = target: T4, PI3K delta (Homo sapiens, UniProt O00329); assay: PI3K delta inhibition assay; assay type: biochemical; details: binned
T4 construct: purchased Upstate
T4 sequence (O00329 whole entry): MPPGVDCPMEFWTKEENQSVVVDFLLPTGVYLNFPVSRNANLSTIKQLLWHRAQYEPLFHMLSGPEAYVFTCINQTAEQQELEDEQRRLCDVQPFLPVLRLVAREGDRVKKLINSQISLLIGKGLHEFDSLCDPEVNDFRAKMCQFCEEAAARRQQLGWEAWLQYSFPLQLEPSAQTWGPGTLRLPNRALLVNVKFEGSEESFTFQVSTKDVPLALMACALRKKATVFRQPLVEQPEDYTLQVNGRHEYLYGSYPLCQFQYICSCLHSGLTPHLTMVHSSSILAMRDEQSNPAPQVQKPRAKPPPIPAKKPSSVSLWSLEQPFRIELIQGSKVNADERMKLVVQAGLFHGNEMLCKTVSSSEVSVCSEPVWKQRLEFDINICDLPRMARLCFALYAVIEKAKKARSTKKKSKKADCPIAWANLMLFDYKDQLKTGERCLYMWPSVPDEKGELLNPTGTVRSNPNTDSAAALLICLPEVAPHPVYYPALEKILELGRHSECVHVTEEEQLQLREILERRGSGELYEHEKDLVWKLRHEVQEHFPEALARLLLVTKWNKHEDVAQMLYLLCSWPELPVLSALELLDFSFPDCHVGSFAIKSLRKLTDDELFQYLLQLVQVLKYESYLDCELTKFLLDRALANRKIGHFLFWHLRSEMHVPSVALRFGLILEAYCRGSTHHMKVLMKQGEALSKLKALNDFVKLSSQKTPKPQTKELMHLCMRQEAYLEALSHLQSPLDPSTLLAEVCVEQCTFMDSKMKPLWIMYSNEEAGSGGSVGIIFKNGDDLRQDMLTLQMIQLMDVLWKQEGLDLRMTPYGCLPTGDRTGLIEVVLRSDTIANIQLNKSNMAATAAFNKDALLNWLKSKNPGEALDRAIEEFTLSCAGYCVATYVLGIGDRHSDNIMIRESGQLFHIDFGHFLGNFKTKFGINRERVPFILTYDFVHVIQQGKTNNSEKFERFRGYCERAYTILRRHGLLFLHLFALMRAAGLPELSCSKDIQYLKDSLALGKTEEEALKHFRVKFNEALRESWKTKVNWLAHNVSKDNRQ
T4 sequence (P27986 whole entry partner): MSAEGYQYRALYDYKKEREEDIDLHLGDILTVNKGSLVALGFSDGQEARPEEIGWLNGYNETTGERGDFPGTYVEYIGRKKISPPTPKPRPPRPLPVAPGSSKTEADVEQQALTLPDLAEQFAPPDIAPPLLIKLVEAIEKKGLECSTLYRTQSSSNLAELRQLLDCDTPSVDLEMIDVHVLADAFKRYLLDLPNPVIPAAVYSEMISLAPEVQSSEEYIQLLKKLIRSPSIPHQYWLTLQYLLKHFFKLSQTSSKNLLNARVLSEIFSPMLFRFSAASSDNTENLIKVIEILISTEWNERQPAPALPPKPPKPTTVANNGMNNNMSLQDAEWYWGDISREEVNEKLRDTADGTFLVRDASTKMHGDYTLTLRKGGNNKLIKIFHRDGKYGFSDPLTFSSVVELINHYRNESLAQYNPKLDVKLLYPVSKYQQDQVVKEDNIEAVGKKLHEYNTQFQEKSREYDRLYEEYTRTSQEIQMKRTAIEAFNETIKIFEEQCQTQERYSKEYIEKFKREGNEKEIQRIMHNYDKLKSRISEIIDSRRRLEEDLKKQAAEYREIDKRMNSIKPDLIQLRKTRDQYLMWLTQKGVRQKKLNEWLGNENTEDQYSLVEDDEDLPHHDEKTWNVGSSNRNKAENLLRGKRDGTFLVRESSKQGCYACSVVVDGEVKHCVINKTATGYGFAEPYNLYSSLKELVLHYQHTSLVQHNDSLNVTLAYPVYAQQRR
Method: as §1, §2

PI3K gamma = target: T5, PI3K gamma (Homo sapiens, UniProt P48736); assay: PI3K gamma inhibition assay; assay type: biochemical; details: binned
T5 construct: purchased Sigma
Method: For TLC analysis, reactions are then terminated by the addition of 105 μl 1N HCl followed by 160 μl CHC13:MeOH (1:1). The biphasic mixture is vortexed, briefly centrifuged, and the organic phase is transferred to a new tube using a gel loading pipette tip precoated with CHCl3. This extract is spotted on TLC plates and developed for 3-4 hours in a 65:35 solution of n-propanol:1M acetic acid. The TLC plates are then dried, exposed to a phosphorimager screen (Storm, Amersham), and quantitated. For each compound, kinase activity is measured at 10-12 inhibitor concentrations representing two-fold dilutions from the highest concentration tested (typically, 200 μM).
Other commercial kits or systems for assaying PI3-K activities are available. The commercially available kits or systems can be used to screen for inhibitors and/or agonists of PI3-Ks including but not limited to PI 3-Kinase α, β, δ, and γ. Anr exemplary system is PI 3-Kinase (human) HTRF™ Assay from Upstate. […] Briefly, the assay is a time resolved FRET assay that indirectly measures PIP3 product formed by the activity of a PI3-K. The kinase reaction is performed in a microtitre plate (e.g., a 384 well microtitre plate). […] The plate is sealed, incubated for 1 hour at room temperature, and then read on an appropriate plate reader. Data is analyzed and IC50s are generated using GraphPad Prism 5.

PC3 = assay: Tumor cell line proliferation assay (Alamar Blue); assay type: cell-based; details: Homo sapiens, PC-3; binned
Method: The ability of one or more subject compounds to inhibit tumor cell line proliferation is determined according to standard procedures known in the art. For instance, an in vitro cellular proliferation assay can be performed to measure the metabolic activity of live cells. The assay is performed in a 96 well microtiter plate using Alamar Blue reduction. Human tumor cell lines are obtained from ATCC (e.g., MCF7, U-87 MG, MDA-MB-468, PC-3), grown to confluency in T75 flasks, trypsinized with 0.25% trypsin, washed one time with Tumor Cell Media (DMEM+10% FBS), and plated in 90 ul at 5,000 cells/well in Tumor Cell Media. A compound disclosed herein is diluted in Tumor Cell Media and added in a 10 ul volume. Plates are incubated for 72 hours at 37 C and 5% CO2. A volume of 10 uL of Alamar Blue reagent is added to each well and plates are incubated for 3 hours at 37 C and 5% CO2. Alamar Blue fluoresce is read at 560Ex/590Em, and IC50 values are calculated using GraphPad Prism 5.

B6.Sle1z.Sle3z model = details: cited from earlier work
[1] = PBS pH 7.4, 37° C., over the course of 24 hours; cited from earlier work
[2] = tested on: p190 transduced leukemic cells; details: about 70 mg/kg twice daily; cited from earlier work
[3] = control or reference compounds, 5 μM; cited from earlier work

T2 sequence (P42345 1360-2549 limits assumed): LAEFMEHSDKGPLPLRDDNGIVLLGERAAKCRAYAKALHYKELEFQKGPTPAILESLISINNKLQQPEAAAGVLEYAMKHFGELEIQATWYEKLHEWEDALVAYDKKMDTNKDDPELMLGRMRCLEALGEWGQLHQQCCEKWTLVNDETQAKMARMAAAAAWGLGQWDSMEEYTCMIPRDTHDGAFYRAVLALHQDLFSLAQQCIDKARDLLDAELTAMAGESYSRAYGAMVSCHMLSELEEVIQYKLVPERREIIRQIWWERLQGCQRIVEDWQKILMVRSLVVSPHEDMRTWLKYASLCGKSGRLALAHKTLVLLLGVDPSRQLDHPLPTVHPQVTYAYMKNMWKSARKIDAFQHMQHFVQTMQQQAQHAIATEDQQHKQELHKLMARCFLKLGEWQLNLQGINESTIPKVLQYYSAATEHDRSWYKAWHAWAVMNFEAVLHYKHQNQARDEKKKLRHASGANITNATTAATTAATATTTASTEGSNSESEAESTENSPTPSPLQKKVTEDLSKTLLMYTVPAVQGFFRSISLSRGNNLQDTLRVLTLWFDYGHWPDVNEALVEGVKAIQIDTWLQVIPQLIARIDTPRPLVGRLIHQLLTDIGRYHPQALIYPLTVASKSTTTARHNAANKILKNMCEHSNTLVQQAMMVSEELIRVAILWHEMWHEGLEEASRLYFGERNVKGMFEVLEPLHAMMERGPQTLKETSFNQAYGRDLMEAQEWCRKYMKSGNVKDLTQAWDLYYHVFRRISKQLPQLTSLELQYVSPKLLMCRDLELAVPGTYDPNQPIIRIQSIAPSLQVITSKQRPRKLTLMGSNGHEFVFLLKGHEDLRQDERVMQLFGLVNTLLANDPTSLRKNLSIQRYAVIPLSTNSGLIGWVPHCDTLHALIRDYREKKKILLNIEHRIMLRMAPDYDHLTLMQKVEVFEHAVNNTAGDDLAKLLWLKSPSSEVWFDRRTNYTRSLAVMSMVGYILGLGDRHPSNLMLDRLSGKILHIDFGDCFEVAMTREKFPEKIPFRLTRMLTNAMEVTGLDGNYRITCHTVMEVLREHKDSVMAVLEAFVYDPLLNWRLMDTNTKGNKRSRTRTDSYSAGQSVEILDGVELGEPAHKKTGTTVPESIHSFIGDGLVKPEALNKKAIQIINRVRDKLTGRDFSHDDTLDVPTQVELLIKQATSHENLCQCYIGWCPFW
T1 sequence (P42338 whole entry): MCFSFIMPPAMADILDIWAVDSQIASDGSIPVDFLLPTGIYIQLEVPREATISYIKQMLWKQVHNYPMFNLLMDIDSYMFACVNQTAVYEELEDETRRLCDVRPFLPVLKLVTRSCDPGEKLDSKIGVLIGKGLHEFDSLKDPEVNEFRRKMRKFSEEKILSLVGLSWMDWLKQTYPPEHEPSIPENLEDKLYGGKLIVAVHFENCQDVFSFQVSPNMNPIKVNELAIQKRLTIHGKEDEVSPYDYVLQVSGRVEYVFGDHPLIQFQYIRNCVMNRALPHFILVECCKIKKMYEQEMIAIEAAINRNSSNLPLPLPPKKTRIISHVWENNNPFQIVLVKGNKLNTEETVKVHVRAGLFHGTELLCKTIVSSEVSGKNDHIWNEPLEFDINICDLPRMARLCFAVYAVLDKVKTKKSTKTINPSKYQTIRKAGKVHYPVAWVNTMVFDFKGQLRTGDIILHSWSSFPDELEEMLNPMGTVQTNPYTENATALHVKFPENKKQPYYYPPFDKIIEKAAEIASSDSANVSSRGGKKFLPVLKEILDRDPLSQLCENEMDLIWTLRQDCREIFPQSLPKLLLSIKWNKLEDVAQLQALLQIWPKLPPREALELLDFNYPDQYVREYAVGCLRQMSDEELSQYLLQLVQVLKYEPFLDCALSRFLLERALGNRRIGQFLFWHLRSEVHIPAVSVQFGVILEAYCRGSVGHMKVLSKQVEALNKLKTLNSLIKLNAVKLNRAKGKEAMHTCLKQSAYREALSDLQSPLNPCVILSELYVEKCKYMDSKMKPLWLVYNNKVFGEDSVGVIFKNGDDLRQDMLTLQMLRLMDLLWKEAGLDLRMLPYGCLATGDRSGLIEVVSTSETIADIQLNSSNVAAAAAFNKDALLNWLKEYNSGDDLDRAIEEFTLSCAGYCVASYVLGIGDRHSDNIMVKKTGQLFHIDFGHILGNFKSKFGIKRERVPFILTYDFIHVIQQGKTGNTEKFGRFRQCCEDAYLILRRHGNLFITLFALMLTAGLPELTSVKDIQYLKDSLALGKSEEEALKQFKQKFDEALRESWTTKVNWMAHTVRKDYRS
T1 sequence (P27986 2-724 partner): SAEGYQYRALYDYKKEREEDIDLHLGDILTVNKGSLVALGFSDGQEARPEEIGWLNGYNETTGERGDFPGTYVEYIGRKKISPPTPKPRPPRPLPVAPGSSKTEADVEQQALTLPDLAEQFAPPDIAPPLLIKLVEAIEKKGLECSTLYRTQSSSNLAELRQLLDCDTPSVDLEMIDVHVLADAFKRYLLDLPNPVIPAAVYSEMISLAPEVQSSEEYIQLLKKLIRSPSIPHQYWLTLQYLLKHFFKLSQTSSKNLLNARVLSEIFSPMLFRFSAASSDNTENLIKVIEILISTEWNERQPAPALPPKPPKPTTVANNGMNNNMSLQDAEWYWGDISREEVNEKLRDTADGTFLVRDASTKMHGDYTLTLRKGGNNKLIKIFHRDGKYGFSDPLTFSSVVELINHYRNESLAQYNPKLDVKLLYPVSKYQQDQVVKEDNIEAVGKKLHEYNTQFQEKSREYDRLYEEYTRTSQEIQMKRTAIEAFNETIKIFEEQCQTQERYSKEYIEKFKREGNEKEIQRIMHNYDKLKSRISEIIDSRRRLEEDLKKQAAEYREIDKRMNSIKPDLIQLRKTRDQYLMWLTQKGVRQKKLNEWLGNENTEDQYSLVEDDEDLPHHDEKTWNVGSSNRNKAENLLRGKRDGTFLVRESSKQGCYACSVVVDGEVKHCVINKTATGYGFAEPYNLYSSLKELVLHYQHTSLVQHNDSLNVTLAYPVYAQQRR

Compound | IC50 (mTORC) | IC50 (PI3K alpha) | other results
CC(=O)Nc1nc2ccc(-c3nn(C(C)C)c4ncnc(N)c34)cc2s1 [Compound 1] | ≤ 50 nM | ≤ 500 nM | IC50 (PI3K beta): > 1000 nM
CC(C)n1nc(-c2ccc3ncsc3c2)c2c(N)ncnc21 [Compound 2] | > 1000 nM | – | –
CC(C)n1nc(-c2ccc3nc(N)sc3c2)c2c(N)ncnc21 [Compound 3] | ≤ 50 nM | ≤ 500 nM | IC50 (PI3K delta): ≤ 100 nM; IC50 (PI3K beta): > 1000 nM
CC(=O)Nc1nc2ccc(-c3nn(C4CCCC4)c4ncnc(N)c34)cc2s1 [Compound 4] | ≤ 50 nM | – | IC50 (PI3K beta): > 1000 nM
CCn1nc(-c2ccc3nc(NC(C)=O)sc3c2)c2c(N)ncnc21 [Compound 5] | ≤ 50 nM | ≤ 100 nM | IC50 (PI3K beta): > 1000 nM
CC(=O)Nc1nc2ccc(-c3nn(C)c4ncnc(N)c34)cc2s1 [Compound 6] | > 1000 nM | ≤ 1000 nM | –
CC(C)C(=O)Nc1nc2ccc(-c3nn(C(C)C)c4ncnc(N)c34)cc2s1 [Compound 7] | > 1000 nM | – | –
CC(C)n1nc(-c2ccc3nc(NC(=O)C4CC4)sc3c2)c2c(N)ncnc21 [Compound 8] | ≤ 500 nM | ≤ 1000 nM | –
CCC(=O)Nc1nc2ccc(-c3nn(C(C)C)c4ncnc(N)c34)cc2s1 [Compound 9] | ≤ 500 nM | ≤ 500 nM | –
CC(=O)Nc1nc2ccc(-c3nn(C4CCC4)c4ncnc(N)c34)cc2s1 [Compound 10] | ≤ 100 nM | ≤ 100 nM | IC50 (PI3K delta): ≤ 100 nM
CNc1nc2ccc(-c3nn(C(C)C)c4ncnc(N)c34)cc2s1 [Compound 11] | ≤ 50 nM | ≤ 100 nM | IC50 (PI3K delta): ≤ 500 nM; IC50 (PI3K beta): > 1000 nM
CCNc1nc2ccc(-c3nn(C(C)C)c4ncnc(N)c34)cc2s1 [Compound 12] | ≤ 500 nM | ≤ 500 nM | IC50 (PI3K delta): ≤ 1000 nM; IC50 (PI3K gamma): ≤ 500 nM
CC(C)n1nc(-c2ccc3nc(NCCN4CCOCC4)sc3c2)c2c(N)ncnc21 [Compound 13] | > 1000 nM | > 1000 nM | –
CC(C)n1nc(-c2ccc3nc(N4CCOCC4)sc3c2)c2c(N)ncnc21 [Compound 14] | > 1000 nM | > 1000 nM | –
CC(C)n1nc(-c2ccc3nc(NC4CC4)sc3c2)c2c(N)ncnc21 [Compound 15] | ≤ 500 nM | > 1000 nM | IC50 (PI3K beta): > 1000 nM
CC(C)n1nc(-c2ccc3nc(NCCO)sc3c2)c2c(N)ncnc21 [Compound 16] | ≤ 1000 nM | ≤ 1000 nM | –
CC(=O)Nc1nc2cc(-c3nn(C(C)C)c4ncnc(N)c34)ccc2s1 [Compound 17] | ≤ 1000 nM | – | –
CNC(=O)Cn1nc(-c2ccc3nc(NC(C)=O)sc3c2)c2c(N)ncnc21 [Compound 18] | > 1000 nM | – | IC50 (PI3K beta): > 1000 nM; IC50 (PI3K gamma): > 1000 nM
CC(=O)Nc1nc2ccc(-c3nn(C4CCOCC4)c4ncnc(N)c34)cc2s1 [Compound 19] | ≤ 50 nM | ≤ 500 nM | –
CNC(=O)Nc1nc2ccc(-c3nn(C(C)C)c4ncnc(N)c34)cc2s1 [Compound 20] | ≤ 50 nM | – | –
CNC(=O)Nc1nc2ccc(-c3cn(C4CCOCC4)c4ncnc(N)c34)cc2s1 [Compound 21] | ≤ 50 nM | – | IC50 (PC3): ≤ 1000 nM
CNC(=O)Nc1nc2ccc(-c3cn(C(C)C)c4ncnc(N)c34)cc2s1 [Compound 22] | ≤ 50 nM | – | IC50 (PC3): ≤ 100 nM
CNC(=O)Nc1nc2ccc(-c3cn(C4CCN(C(C)=O)CC4)c4ncnc(N)c34)cc2s1 [Compound 23] | ≤ 50 nM | – | IC50 (PI3K beta): ≤ 100 nM; IC50 (PC3): > 1000 nM
CO[C@H]1C[C@@H]2CC[C@@H](C)[C@@](O)(O2)C(=O)C(=O)N2CCCC[C@H]2C(=O)O[C@H]([C@H](C)C[C@@H]2CC[C@@H](OCCO)[C@H](OC)C2)CC(=O)[C@H](C)/C=C(\C)[C@@H](O)[C@@H](OC)C(=O)[C@H](C)C[C@H](C)/C=C/C=C/C=C/1C [RAD001] | – | – | lupus symptoms (B6.Sle1z.Sle3z model): ameliorate lupus symptoms
O=C(O)CCCc1ccc(N(CCCl)CCCl)cc1 [chlorambucil] | – | – | chemical stability [1]: largely hydrolyzed
Cc1ccc(NC(=O)c2ccc(CN3CCN(C)CC3)cc2)cc1Nc1nccc(-c2cccnc2)n1 [imatinib] | – | – | leukemogenesis [2]: delay but not cure leukemogenesis
CC(C)[N+](C)(CCOC(=O)C1c2ccccc2Oc2ccccc21)C(C)C [propantheline] | – | – | plasma stability [3]: intermediate plasma stability
CCCOc1cc(N)ccc1C(=O)OCCN(CC)CC [propoxycaine] | – | – | plasma stability [3]: low plasma stability
